ChEMBL document CHEMBL3137381, “MMV Box Onchocerca lienalis screening set”

Tests used:
Assay type in all cases: functional
[1] = test system: Onchocerca lienalis; assay: MMV: Percent motility assay at a compound concentration of 1.25e-5 M. Activity score legend: 3: Active, 2: Moderately active; 1: Inactive, 0: Toxic; conditions: at 12.5 µM
[2] = test system: Onchocerca lienalis; assay: MMV: Percent motility assay at a compound concentration of 3.1e-6 M. Activity score legend: 3: Active, 2: Moderately active; 1: Inactive, 0: Toxic; conditions: at 3.1 µM
[3] = test system: Onchocerca lienalis; assay: MMV: Percent motility assay at a compound concentration of 1.9e-7 M. Activity score legend: 3: Active, 2: Moderately active; 1: Inactive, 0: Toxic; conditions: at 0.19 µM
[4] = test system: Onchocerca lienalis; assay: MMV: Percent motility assay at a compound concentration of 7.8e-7 M. Activity score legend: 3: Active, 2: Moderately active; 1: Inactive, 0: Toxic; conditions: at 0.78 µM

Measured: Motility

CCOc1cc(CNC(C)C(O)c2ccccc2)cc(Cl)c1OCC (stereo not drawn)
100%: all assays above

Cc1cc(NC(=O)c2cccc(C(F)(F)F)c2)n(-c2nc(-c3ccc4c(c3)OCO4)cs2)n1
100%: all assays above

COc1cccc(C2(C)Nc3ccccc3-c3nc4ccccc4n32)c1 (stereo not drawn)
100%: all assays above

CC(C)CNC(=O)c1c(N)n(CCc2ccccc2F)c2nc3ccccc3nc12
100%: all assays above

Cc1cccc(-n2ncc3c(O)nc(-n4nc(C)cc4NC(=O)c4cc5ccccc5o4)nc32)c1
0%: [1]
100%: all other assays above

COCCNCC(O)Cn1c2ccc(Cl)cc2c2cc(Cl)ccc21 (stereo not drawn)
66.66%: [1]
100%: all other assays above

O=C(NC1CCN(Cc2ccccc2)CC1)c1cc(-c2ccncc2)nc2ccc(Cl)cc12
100%: all assays above

COc1cc2cc(C(=O)Nc3ccccc3)c(N)nc2cc1OC
100%: all assays above

O=C(O)C(=O)O.Oc1ccccc1CN1CCN(C(c2ccccc2)c2ccccc2)CC1
100%: all assays above

CN1CCN(c2c3c(c(C#N)c4nc5ccccc5n24)CCC3)CC1
100%: all assays above

CCOc1ccc(C2N(C)c3ccccc3N2C)cc1
100%: all assays above

COc1nc(Nc2ccc(C(C)C)cc2)nc(OC)n1
100%: all assays above

CCN(CC)CCNc1ncnc2c1[nH]c1ccc(Br)cc12
100%: all assays above

CCOc1cccc(C(=O)Nc2ccc(-c3nc4ccccc4[nH]3)cc2)c1
100%: all assays above

Cl.Clc1cc(Br)ccc1-c1ccc(CNCC2CCNCC2)o1
100%: all assays above

O=C(Nc1ccc(N2CCN(Cc3ccccc3)CC2)cc1)c1cccs1.O=C(O)C(F)(F)F
100%: all assays above

O=C(Nc1ccc(N2CCCCC2)c(Cl)c1)c1ccc(Br)o1
100%: all assays above

CC1CC(C)CN(C(=O)c2ccc(Cl)cc2Cl)C1 (stereo not drawn)
100%: all assays above

OC(CNC1CCCC1)Cn1c2ccccc2c2ccccc21 (stereo not drawn)
100%: all assays above

Clc1ccc2[nH]c3c(NCCCN4CCOCC4)ncnc3c2c1
100%: all assays above

Cc1cc(N2CCN(C3CCCC3)CC2)n2c(nc3ccccc32)c1C#N
100%: all assays above

CCc1ccc(Nc2cc(C)nc3nc(C)nn23)cc1
100%: all assays above
